Experimental data from US20090118286A1, “Heterobicyclic Acrylamides” (Bayer Cropscience AG, priority 2005, published 2009).
Read-outs that look alike come from different tables or passages of the source.

Tests used:
[1] = test system: caterpillars of the army worm (Spodoptera frugiperda); test: Spodoptera frugiperda test, SPODFR spray treatment; format: in vivo; conditions: foliar, 168 h, 500 g a. i./ha, spray treatment of maize leaf discs, 7 d, read-out: % 7 d (effect in %, caterpillars killed)
Experimental: (§1) [table] To produce a suitable preparation of active compound, 1 part by weight of active compound is mixed with the stated amounts of solvents and emulsifier, and the concentrate is diluted with emulsifier-containing water to the desired concentration. Discs of maize leaves (Zea mays) are sprayed with a preparation of active compound of the desired concentration and, after drying, populated with caterpillars of the army worm (Spodoptera frugiperda). After the desired period of time, the effect in % is determined. 100% means that all caterpillars have been killed; 0% means that none of the caterpillars have been killed.

[2] = log P determination by HPLC (EEC Directive 79/831 Annex V.A8, gradient method); format: physicochemical; conditions: HPLC, gradient method, acetonitrile/0.1% strength aqueous phosphoric acid or formic acid
[3] = test system: larvae of the mustard beetle (Phaedon cochleariae); test: Phaedon test, PHAECO spray treatment; format: in vivo; conditions: foliar, 168 h, 500 g a. i./ha, spray treatment of Chinese cabbage leaf discs, 7 d, read-out: % 7 d (effect in %, beetle larvae killed)
Experimental: as §1, with “of Chinese cabbage” for “of maize”, “leaves (Brassica pekinensis)” for “leaves (Zea mays)”, “with larvae” for “with caterpillars”, “the mustard beetle (Phaedon cochleariae).” for “the army worm (Spodoptera frugiperda).”, “all beetle larvae” for “all caterpillars”, “the beetle larvae” for “the caterpillars”

| Compound | pest or weed control at 500 g/ha [1] [%] | chromatographic logP ([2]; read-out: Physical data: log P) | chromatographic logP ([2]; read-out: Physical data: logP) | chromatographic logP ([2]; read-out: Physical data (logP)) | pest or weed control at 500 g/ha [3] [%] |
| --- | --- | --- | --- | --- | --- |
| CCC(C)NC(=O)/C=C/c1c(-c2ccccc2C)nc2sc(C(F)(F)F)nn12 (centres unmarked) [Example 0238] | 100 | 3.59 | – | – | – |
| CC(C)(C)NC(=O)/C=C/c1c(-c2ccc(Cl)cc2Cl)nc2sc(C(F)(F)F)nn12 [Example 0515] | 100 | 4.32 | – | – | – |
| COCC(C)NC(=O)/C=C/c1c(-c2ccc(F)cc2Cl)nc2sc(C(F)(F)F)nn12 (centres unmarked) [Example 0592] | 100 | 3.11 | – | – | – |
| CCC(CC)NC(=O)/C=C/c1c(-c2ccc(F)cc2Cl)nc2sc(C(F)(F)F)nn12 [Example 0638] | 100 | – | 3.89 | – | – |
| CCC(C)NC(=O)/C=C/c1c(-c2ccccc2Cl)nc2sc(C(F)(F)F)nn12 (centres unmarked) [Example 0167] | 100 | – | – | 3.46 | – |
| O=C(/C=C/c1c(-c2ccc(Cl)cc2Cl)nc2sc(C(F)(F)F)nn12)Nc1ccc(F)cc1 [Example 0553] | 100 | 4.63 | – | – | – |
| CCC(C)NC(=O)/C=C/c1c(-c2ccccc2F)nc2sc(C(F)(F)F)nn12 (centres unmarked) [Example 0451] | 100 | 3.33 | – | – | – |
| COc1ccc(-c2nc3sc(C(F)(F)F)nn3c2/C=C/C(=O)NC(C)(C)C)cc1OC [Example 0654] | – | – | 3.37 | – | 100 |
| CCC(CC)NC(=O)/C=C/c1c(-c2ccccc2F)nc2sc(C(F)(F)F)nn12 [Example 0499] | 83 | 3.59 | – | – | – |
| CC(C)C(C)NC(=O)/C=C/c1c(-c2ccccc2Cl)nc2sc(C(F)(F)F)nn12 (centres unmarked) [Example 0174] | 83 | – | – | 3.76 | – |
| CCCC(C)NC(=O)/C=C/c1c(-c2ccccc2C)nc2sc(C(F)(F)F)nn12 (centres unmarked) [Example 0239] | 100 | 3.94 | – | – | – |
| Cc1ccccc1-c1nc2sc(C(F)(F)F)nn2c1/C=C/C(=O)NC(C)C(C)C (centres unmarked) [Example 0245] | 83 | 3.9 | – | – | – |
| O=C(/C=C/c1c(-c2ccccc2Cl)nc2sc(C(F)(F)Cl)nn12)Nc1ccc(F)cc1 [Example 0767] | 100 | – | 4.19 | – | – |
| O=C(/C=C/c1c(-c2cccc(Cl)c2)nc2sc(C(F)(F)F)nn12)N1CCOCC1 [Example 0142] | – | – | – | 3.31 | 100 |
| CC(C)C(NC(=O)/C=C/c1c(-c2ccc(F)cc2Cl)nc2sc(C(F)(F)F)nn12)C(F)(F)F (centres unmarked) [Example 0599] | 100 | 4.37 | – | – | – |
| Cc1ccccc1-c1nc2sc(C(F)(F)F)nn2c1/C=C/C(=O)NC(C)C [Example 0229] | 100 | 3.24 | – | – | – |
| CC(C)NC(=O)/C=C/c1c(-c2ccc(F)cc2Cl)nc2sc(C(F)(F)F)nn12 [Example 0581] | 100 | 3.32 | – | – | – |
| CC(C)(C)NC(=O)/C=C/c1c(-c2ccc(F)cc2Cl)nc2sc(C(F)(F)F)nn12 [Example 0583] | 100 | 3.89 | – | – | – |
| O=C(/C=C/c1c(-c2ccc(F)cc2Cl)nc2sc(C(F)(F)F)nn12)NCC(F)(F)F [Example 0603] | 100 | 3.51 | – | – | – |
| CCCC(C)NC(=O)/C=C/c1c(-c2ccccc2Cl)nc2sc(C(F)(F)F)nn12 (centres unmarked) [Example 0168] | 100 | – | – | 3.85 | – |
| O=C(/C=C/c1c(-c2ccccc2Cl)nc2sc(C(F)(F)F)nn12)Nc1ccc(F)cc1 [Example 0201] | 100 | – | – | 4.08 | – |
| CC(NC(=O)/C=C/c1c(-c2ccc(Cl)c(Cl)c2)nc2sc(C(F)(F)F)nn12)c1ccccn1 (centres unmarked) [Example 0793] | – | – | 3.26 | – | 100 |
| CC(C)C(C)NC(=O)/C=C/c1c(-c2ccc(F)cc2Cl)nc2sc(C(F)(F)F)nn12 (centres unmarked) [Example 0597] | 100 | 3.9 | – | – | – |

| Compound | pest or weed control at 500 g/ha [1] [%] | chromatographic logP ([2]; read-out: Physical data: log P) | chromatographic logP ([2]; read-out: Physical data: logP) | chromatographic logP ([2]; read-out: Physical data (logP)) | pest or weed control at 500 g/ha [3] [%] |
| --- | --- | --- | --- | --- | --- |
| O=C(/C=C/c1c(-c2ccc(F)cc2Cl)nc2sc(C(F)(F)F)nn12)Nc1ccc(F)cc1 [Example 0624] | 100 | 4.17 | – | – | – |
| O=C(/C=C/c1c(-c2ccccc2Cl)nc2sc(C(F)(F)F)nn12)NC1CCC1 [Example 0153] | 100 | – | – | 3.33 | – |
| CC(NC(=O)/C=C/c1c(-c2cc(Cl)ccc2Cl)nc2sc(C(F)(F)F)nn12)C(F)(F)F (centres unmarked) [Example 0729] | – | – | – | – | 100 |
| CC(NC(=O)/C=C/c1c(-c2ccc(Cl)cc2)nc2sc(C(F)(F)F)nn12)C(F)(F)F (centres unmarked) [Example 0024] | 100 | – | – | 4.13 | – |
| CCC(CC)NC(=O)/C=C/c1c(-c2ccccc2Cl)nc2sc(C(F)(F)F)nn12 [Example 0215] | 100 | – | – | 3.72 | – |
| O=C(/C=C/c1c(-c2ccc(F)cc2Cl)nc2sc(C(F)(F)F)nn12)NCC(F)(F)C(F)(F)F [Example 0610] | 100 | 3.97 | – | – | – |
| O=C(/C=C/c1c(-c2ccccc2Cl)nc2sc(C(F)(F)F)nn12)NC1CC1 [Example 0152] | – | – | – | 2.88 | 100 |
| CC(NC(=O)/C=C/c1c(-c2ccccc2Cl)nc2sc(C(F)(F)F)nn12)C(F)(F)F (centres unmarked) [Example 0175] | 100 | – | – | 3.63 | – |
| CC(C)NC(=O)/C=C/c1c(-c2ccc(F)cc2)nc2sc(C(F)(F)F)nn12 [Example 0300] | 100 | 3.24 | – | – | – |
| CC(NC(=O)/C=C/c1c(-c2cccc(C(F)(F)F)c2)nc2sc(C(F)(F)F)nn12)c1ccccn1 (centres unmarked) [Example 0416] | – | 3.03 | – | – | 100 |
| CC(NC(=O)/C=C/c1c(-c2ccc(Cl)cc2Cl)nc2sc(C(F)(F)F)nn12)C(F)(F)F (centres unmarked) [Example 0527] | 100 | 4.23 | – | – | – |
| CC(C)NC(=O)/C=C/c1c(-c2ccc(Cl)cc2Cl)nc2sc(C(F)(F)F)nn12 [Example 0513] | 100 | 3.69 | – | – | – |
| CCC(C)NC(=O)/C=C/c1c(-c2ccccc2Cl)nc2sc(C(F)(F)Cl)nn12 (centres unmarked) [Example 0733] | 100 | – | 3.67 | – | – |
| CC(C)NC(=O)/C=C/c1c(-c2ccccc2F)nc2sc(C(F)(F)F)nn12 [Example 0442] | 100 | 2.96 | – | – | – |
| CCC(CC)NC(=O)/C=C/c1c(-c2ccccc2Cl)nc2sc(C(F)(F)Cl)nn12 [Example 0781] | 100 | – | 3.95 | – | – |
| CC(NC(=O)/C=C/c1c(-c2ccccc2Cl)nc2sc(C(F)(F)Cl)nn12)C(F)(F)F (centres unmarked) [Example 0741] | 100 | – | 3.8 | – | – |
| CCC(CC)NC(=O)/C=C/c1c(-c2ccccc2C)nc2sc(C(F)(F)F)nn12 [Example 0286] | 100 | 3.85 | – | – | – |
| O=C(/C=C/c1c(-c2ccccc2Cl)nc2sc(C(F)(F)F)nn12)N1CCOCC1 [Example 0223] | 100 | 2.79 | – | – | – |
| CCCC(C)NC(=O)/C=C/c1c(-c2ccc(F)cc2Cl)nc2sc(C(F)(F)F)nn12 (centres unmarked) [Example 0591] | 100 | 4.02 | – | – | – |
| Cc1ccccc1-c1nc2sc(C(F)(F)F)nn2c1/C=C/C(=O)NC(C)c1ccccn1 (centres unmarked) [Example 0274] | 100 | 2.45 | – | – | – |
| CCN(CC)C(=O)/C=C/c1c(-c2ccc(Cl)cc2Cl)nc2sc(C(F)(F)F)nn12 [Example 0573] | 100 | 4.18 | – | – | – |
| CC(NC(=O)/C=C/c1c(-c2cc(Cl)ccc2Cl)nc2sc(C(F)(F)F)nn12)C(F)(F)F (centres unmarked) [Example 0792] | 100 | – | 4.13 | – | – |
